Active and inactive are the calls of the source.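 The calls were made as follows: active = compounds whose fitted half-maximal concentration in the cell-protection dose series is at or below a set limit; inactive = the rest.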

We go through four compounds from PubChem BioAssay AID588780 (Sanford-Burnham Center for Chemical Genomics, 2011).

For this assay, the system named is H9c2 cardiomyocytes, 2-deoxyglucose stress, ATP luminescence, 2 h. Briefly: H9c2 cell survival under 2-deoxyglucose stress – uHTS hits, dose response (AID 588780).
As for `NS(=O)(=O)c1cccc(NC(=O)COC(=O)Cc2n[nH]c(=O)c3ccccc23)c1`, the IC50 – broadly, the midpoint of a concentration-inhibition curve – was > 79 µM (inactive).
The figure for `COc1cc(NC(=O)c2cc3c(C)nc4ccccc4c3o2)cc(OC)c1OC` is > 79 µM (inactive); for `COc1ccc(CNn2c(-c3cccs3)nc3ccccc3c2=O)cc1OC` it is 11.8 µM; for `CCOC(=O)Cc1csc(NC(=O)NC2(C(F)(F)F)Oc3ccc(Cl)cc3O2)n1` (centres undefined) it is > 79 µM (inactive).
